The source of these data is ChEMBL document CHEMBL2413023, “Antiparasitic hybrids of Cinchona alkaloids and bile acids” (Eur J Med Chem, 2013).

As a reminder, the IC50 is the concentration that inhibits the measured activity by half.

In data set [1] the test system is Leishmania mexicana mexicana. Kind of data set: Antileishmanial activity against Leishmania mexicana mexicana MHOM/BZ/84/BEL46 promastigotes assessed as parasite LDH activity by three-fold serial dilution method. The data set is classed as functional, organism-based.
Data set [2] deals with Trypanosoma brucei brucei. In words: Antitrypanosomal activity against Trypanosoma brucei brucei Lister 427 bloodstream form assessed as parasite LDH activity by three-fold serial dilution method. Format: functional, organism-based.
The next data set can be described thus: in vitro. The note with it: human, WI38 cells.
The nature of data set [3]: Selectivity index, ratio of IC50 for human WI38 cells to IC50 for Leishmania mexicana mexicana MHOM/BZ/84/BEL46 promastigotes. Format: toxicity, cell-based, WI-38. The note with it: read-out: Ratio IC50.
For the next data set, the system named is WI-38. In words: Cytotoxicity against human WI38 cells by MTT assay. The data set is classed as cell-based. Background: Tetrazolium assays rely on reduction of a dye to a coloured formazan, in cell work by metabolically active cells.
For the next data set, the system named is Plasmodium falciparum. In words: Antiplasmodial activity against erythrocytic stage of chloroquine-sensitive Plasmodium falciparum 3D7 assessed as parasite LDH activity by three-fold serial dilution method. The data set is classed as functional, organism-based.
Data set [4] in a line: Selectivity index, ratio of IC50 for human WI38 cells to IC50 for erythrocytic stage of chloroquine-sensitive Plasmodium falciparum 3D7. The data set is classed as toxicity, cell-based, WI-38. The note with it: read-out: Ratio IC50.

Structures are written as SMILES. ≈ marks a conversion by molar mass, not a printed value.

Description for in vitro: Selectivity index, ratio of IC50 for human WI38 cells to IC50 for Trypanosoma brucei brucei Lister 427 bloodstream form

Take `C=C[C@H]1CN2CC[C@H]1C[C@H]2[C@H](O)c1cc(CC[C@@H](C)[C@H]2CC[C@H]3[C@@H]4[C@H](OC(C)=O)C[C@@H]5C[C@H](OC(C)=O)CC[C@]5(C)[C@H]4CC[C@]23C)nc2ccc(OC)cc12`: the IC50 in data set [1] stood at 3.49 µg/mL (≈ 4.62 µM); in data set [2], 1.22 µg/mL (≈ 1.62 µM); in the data set on WI-38, 3.92 µg/mL (≈ 5.19 µM); with Plasmodium falciparum, 0.69 µg/mL (≈ 0.914 µM). Also, the selectivity ratio came out at 3.2 in the data set “in vitro”, 1.1 in data set [3] and 5.6 in data set [4].

In the case of `C=C[C@H]1CN2CC[C@H]1C[C@H]2[C@H](O)c1cc(CC[C@@H](C)[C@H]2CC[C@H]3[C@@H]4[C@H](O)C[C@@H]5C[C@H](O)CC[C@]5(C)[C@H]4CC[C@]23C)nc2ccc(OC)cc12`, the IC50 was 4.67 µg/mL (≈ 6.96 µM) in data set [1], 0.41 µg/mL (≈ 0.611 µM) in data set [2], 4.57 µg/mL (≈ 6.81 µM) in the data set on WI-38 and 0.3 µg/mL (≈ 0.447 µM) in the data set with Plasmodium falciparum. Besides, the selectivity ratio is 11.1 in the data set “in vitro”, 0.98 in data set [3] and 15.5 in data set [4].
